Measured values as given in patent publication US8709440B2, “Agent for expelling parasites in humans, animals or birds” (Momentum Animal Cure BVBA, priority 2009, dated 2014).

Tested on: helminths that were resistant to ivermectine, pyrantel, praziquantel and moxidectine
Assay: Treatment of Horse 4 severely infected with resistant parasites
Assay type: in vivo
Conditions: Horse 4 severely infected with parasites
Experimental: Horse 4 was treated with 38 g Asafoetida powder with Arabic gum mixed in milk and with cereal.

Molecule | result of several treatments
O=C(C1CCCCC1)N1CC(=O)N2CCc3ccccc3C2C1 (stereo not shown) [praziquantel] | had no result
CN1CCCN=C1/C=C/c1cccs1 [pyrantel] | had no result
CO/N=C1\C[C@]2(C[C@@H]3C[C@@H](C/C=C(\C)C[C@@H](C)/C=C/C=C4\CO[C@@H]5[C@H](O)C(C)=C[C@@H](C(=O)O3)[C@]45O)O2)O[C@H](/C(C)=C/C(C)C)[C@H]1C [moxidectine] | had no result
ivermectine | had no result
